Test results as given in patent US11845760B2, “PRMT5 inhibitors” (AMGEN INC., priority 2020, dated 2023).
pIC50: −log10 of the molar value. Like-named read-outs stand apart in the source and are kept apart here.

Key:
HCT116 MTAP null cells = experiment: HCT116 MTAP null cell line proliferation (CellTiter-Glo cell viability, 6 days); format: cell-based; details: HCT116 MTAP null cells, 6 days of treatment, CellTiter-Glo cell viability, read-out: HCT-116 MTAP null IC50
Method in brief: (§1)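 Isogenic HCT116 pair (both MTAP alleles knocked out vs parent) in RPMI 1640 + 10% FBS, seeded overnight at 37° C, 5% CO2, then exposed 6 days to 8- or 9-point 1:3 dilutions from 1 or 10 μM. CellTiter-Glo luminescence; IC50 from sigmoidal fit, Hill slope fixed −1, top 100%, or 4-parameter logistic.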

HCT116 WT cells = experiment: HCT116 WT cell line proliferation (CellTiter-Glo cell viability, 6 days); format: cell-based; details: HCT116 WT (parent) cells, 6 days of treatment, CellTiter-Glo cell viability, read-out: HCT-116 WT IC50
Method in brief: as §1

pIC50 (HCT116 MTAP null cells; HCT116-MTAP null, 144 h)	pIC50 (HCT116 WT cells; Homo sapiens, HCT-116, 144 h)	pIC50 (HCT116 MTAP null cells)	pIC50 (HCT116 WT cells)	Compound
< 6.00	< 5.00			Nc1nc2ccc(C(=O)N3CCOC[C@H]3c3ccc(Br)cn3)cc2c2c1COC2 (single isomer, unassigned) [Example 572]
		6.46	5.24	(4-amino-7-chloro-1,3- dihydrofuro[3,4-c]quinolin-8- yl)((3R,4S)-3-ethyl-4-(4- methylphenyl)-1- pyrrolidinyl)methanone and (4-amino-7-chloro-1,3- dihydrofuro[3,4-c]quinolin-8- yl)((3S,4R)-3-ethyl-4-(4- methylphenyl)-1- pyrrolidinyl)methanone [Example 424]
6.34	5.69			Nc1nc2ccc(C(=O)N3CCC(F)(F)CC3c3ccc(Br)cc3)cc2c2c1COC2 (racemic) [Example 368, (4-amino-1,3-dihydrofuro[3,4-c]quinolin-8-yl)-[rac-(2R)-2-(4-bromophenyl)-4,4-difluoro-1-piperidyl]methanone]
